Laboratory results: paper PMC3185947 (British Journal of Cancer, 2011)
Read-outs that look alike come from different tables or passages of the source.

Experiments:
[1] = in vivo
Description: (§1) PK parameters were estimated by non-compartmental methods (WinNonlin v.3.1, Pharsight Corp., Mountain View, CA, USA).

[2] = Plasma pharmacokinetics of erlotinib and OSI-420 (HPLC, non-compartmental); conditions: erlotinib dose 425 mg m^−2, 1 patient;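 note: pharmacokinetic parameters derived by non-compartmental analysis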
Description: as §1

[3] = system: previously treated advanced non-small cell lung cancer (NSCLC)
Protocol: In the initial stage, we assessed the feasibility of intrapatient dose escalation from 150 mg per day to a maximal level of tolerable skin toxicity, which was defined as the TR. This objective was determined to be feasible if patients developed a TR in the absence of non-cutaneous dose-limiting toxicity (DLT). […] Skin toxicity was graded according to the following scale that was based on patient tolerability:
In the absence of both a TR and non-cutaneous DLT, the dose was increased in each patient to 200 mg per day, and then in 25 mg per day increments every 14 days. […] Toxicities were graded according to the National Cancer Institute Common Toxicity Criteria (NCI CTC), Version 2.0, except for skin toxicity.
Tumour assessments were performed using the Response Evaluation Criteria in Solid Tumours using computerised tomographic scanning or magnetic resonance imaging pretreatment and every 6–8 weeks during treatment ([Therasse et al, 2000]).

clinical = conditions: human, in vivo
Description: as §1

For `C#Cc1cccc(Nc2ncnc3cc(OCCOC)c(OCCOC)cc23)c1` [erlotinib], the “Relationships between dose and both AUC0–24 and Cmax (Spearman rank correlation)” value ([1]; human) was “did not reveal any significant deviation from dose proportionality”, the “Interpatient and intrapatient variability of PK” value [1] was “High” and the “Erlotinib Tmax” value [2] was 4.0 h. The “Disease control (CR+PR+SD): No. of patients with CR+PR+s.d./total no. of patients” value ([3]; All patients) was 24/42, the “Disease control (CR+PR+SD): Response rate (95% CI)” value ([3]; All patients) was 57.1 (41.0, 72.3) and the “Objective responses (CR+PR): No. of patients with PR+CR/total no. of patients” value ([3]; All patients) was 5/42. The “Objective responses (CR+PR): Response rate (95% CI)” value (“Objective responses … (95% CI)” for short) ([3]; All patients) was 11.9 (4.0, 25.6), the “Disease control (CR+PR+SD): No. of patients with CR+PR+s.d./total no. of patients” value ([3]; Target rash feasible) was 15/24 and the “Disease control (CR+PR+SD): Response rate (95% CI)” value ([3]; Target rash feasible) was 62.5 (40.6, 81.2). The “Objective responses (CR+PR): No. of patients with PR+CR/total no. of patients” value ([3]; Target rash feasible) was 5/24, the “Objective responses … (95% CI)” value ([3]; Target rash feasible) was 20.8 (7.1, 42.2) and the “Disease control (CR+PR+SD): No. of patients with CR+PR+s.d./total no. of patients” value ([3]; Target rash not feasible) was 9/18. For the same compound, the “Disease control (CR+PR+SD): Response rate (95% CI)” value ([3]; Target rash not feasible) was 50.0 (26.0, 74.0), the “Objective responses (CR+PR): No. of patients with PR+CR/total no. of patients” value ([3]; Target rash not feasible) was 0/18 and the “Objective responses … (95% CI)” value ([3]; Target rash not feasible) was 0.0 (N/A). For the same compound, the “Median progression-free survival (PFS)” value ([3]; all patients, 95% CI: 1.61–4.14) was 2.3 months, the “Patients with a partial response (PR)” value ([3]; five of 42 patients, 95% CI: 4.0–25.6) was 12% and the “Median time to initial response” value ([3]; five patients with PR, range, 5–76) was 6 weeks. For the same compound, the “Patients with stable disease” value ([3]; nineteen of 42 patients) was 45%, the “Median PFS” value ([3]; patients who did not experience a TR, 95% CI: 1.54, 4.14) was 1.9 months and the “Median PFS” value ([3]; patients who experienced a TR, 95% CI: 1.61, 6.97) was 3.5 months. For the same compound, the “Reduction in the risk of disease progression or death” value ([3]; patients who had TR) was 49%, the PFS ([3]; patients with PR as best response, range, 5.2 to 66+) was 12 months and the PFS ([3]; patients with SD as best response, range, 1.2–14.0) was 4.7 months. For the same compound, the PFS ([3]; patients with progressive disease as best response, range, 1.2–1.9) was 1.4 months, the Cmax (clinical; 150 mg) was 1910 ng/mL and the Tmax (clinical; 150 mg) was 2 h. For the same compound, the Cmax (clinical; 200 mg) was 2650 ng/mL, the Tmax (clinical; 200 mg) was 2 h and the Cmax (clinical; 225 mg) was 2540 ng/mL. It also gave a Tmax (clinical; 225 mg) of 2 h, a Cmax (clinical; 250 mg) of 2820 ng/mL and a Tmax (clinical; 250 mg) of 2.1 h. For the same compound, the Cmax (clinical; 275 mg) was 2190 ng/mL, the Tmax (clinical; 275 mg) was 1 h and the Cmax (clinical; 300 mg) was 2940 ng/mL. The Tmax (clinical; 300 mg) was 2 h, the Cmax (clinical; 325 mg) was 2800 ng/mL and the Cmax (clinical; 350 mg) was 1780 ng/mL. It also gave a Tmax (clinical; 350 mg) of 3.5 h, a Cmax (clinical; 375 mg) of 2770 ng/mL and a Tmax (clinical; 375 mg) of 1 h. The Tmax (clinical; 400 mg) was 2 h, the Cmax (clinical; 425 mg) was 2780 ng/mL and the Cmax (clinical; 450 mg) was 4100 ng/mL. The Tmax (clinical; 450 mg) was 8 h, the Cmax (clinical; 475 mg) was 2200 ng/mL and the Tmax (clinical; 475 mg) was 4.2 h.
